{"source": "patent US20260232726A1", "about": "“USE OF BORON FOR THE TREATMENT OF LEISHMANIASIS DISEASE OF NEURONAL ORIGIN” (YEDITEPE UNIVERSITESI, priority 2023, published 2026)", "key": {"[1]": {"tested_on": "leishmaniasis", "settings": "cited from earlier work"}, "[2]": {"tested_on": "GSH level in astrocytes infected with Leishmania", "experiment": "Oxidative stress by measurement of glutathione (GSH) level in infected astrocytes (DTNB)", "format": "cell-based, murine", "settings": "50, 100, 150 and 200 μM SPT; 24 hours", "method": "6. Determining the Oxidative Stress by Measurement of Glutathione (GSH) Level in Astrocytes Infected with Leishmania\nTo determine the GSH level of infected astrocytes, cell lysate (50 ul) is suspended in DTNB (Ellman's reagent—5,5′-Dithiobis(2-nitrobenzoic acid)) (10 uL). Then, EDTA buffer solution (pH 8.2) is added to this mixture in a 96-well plate. After incubation in the dark at 37° C. for 30 minutes, absorbance is measured colorimetrically at a wavelength of 412 nm using a UV spectrophotometer (Thermo Scientific, Finland). The results are expressed as μmol/g protein."}, "[3]": {"tested_on": "healthy C8-S astrocyte cells", "experiment": "Cell viability of healthy astrocytes treated with SPT (MTS method)", "format": "cell-based, murine", "method": "(§1) Astrocyte C8-S murine cell line (ATCC) is grown as monolayer in RPMI 1640 nutrient medium (2 mM L-glutamine, 100 U/ml penicillin, 100 μg/ml streptomycin) with 10% FBS, heat inactivated in a humidified atmosphere environment with 5% C02 at 37° C. Cells are passaged at 3-day intervals.\n3. Treating Astrocytes with SPT and Determining Cell Viability\nCells were seeded in 96-well culture dishes (Coming Glasswork, Coming, NY) in Dulbecco's modified Eagle's medium (DMEM) containing 10% fetal bovine serum (lnvitrogen) and 1% PSA (Biological Industries, Beit Haemek, Israel) at 8.000 cells/well and then treated with SPT, and cell viability levels were measured on days 1, 2 and 3. Cell viability is measured by using 3-(4,5-di-methyl-thiazol-2-yl)-5-(3-carboxy-methoxy-phenyl)-2-(4-sulfo-phenyl)-2H-tetrazolium (MTS)-method (CellTiter96 AqueousOne Solution; Promega, Southampton, UK). 10 μl MTS solution is added onto the cells in 100 μl growth medium and they are incubated in the dark for 2 hours. After the incubation period, viability analysis is obtained by performing absorbance measurement with an ELISA plate reader (Biotek, Winooski, VT) at 490 nm wavelength."}, "[4]": {"tested_on": "C8-S astrocyte cells infected with L. infantum parasites", "experiment": "Infection rate of astrocytes infected with parasites after SPT treatment (flow cytometer)", "format": "cell-based, Leishmania infantum", "method": "Leishmania infimtum (MHOM/MA/67/TTMA-P263) promastigotes are incubated in RPMI medium (heat inactivated 1 0/4) fetal bovine serum, 2 mM L-glutamine, 20 mM HEPES, 100 U/ml penicillin, 100 μg/ml streptomycin) at 27° C. Parasites reaching the logarithmic phase (10^6/ml) are made infective.\nas §1\nC8-S astrocytes and L. infantum promastigotes were stained with PKH26 (Red Fluorescent Cell Linker Kit, Sigma-Aldrich) and PKH67 (Green Fluorescent Cell Linker Kit, Sigma-Aldrich), respectively, according to the procedure described previously in the article by Islek et al. (2021). A total cell concentration of 10^7 cells/ml was used. Before infection, the staining rate of parasites and cells was determined by flow cytometry.\n5. Treating the Infected Astrocytes with SPT\nThe effect of SPT on the proliferation of astrocyte cells infected with parasites is analyzed. In summary, astrocytes are infected with parasites at 37° cat a ratio of 10:1 (parasite: astrocyte). After 3 and a half hours, infected astrocytes are washed with medium to remove the remaining parasites. Infected astrocytes are left to incubate with SPT at different concentration ranges for 3 days at 37° C., fixed at the end of 3 days and the infection rate is determined by flow cytometer. The percentage of infection is determined according to the following formula: […]"}, "[5]": {"settings": "SPT 50-400 μM, 24, 48 and 72 hours"}}, "note": "Read-outs that look alike come from different tables or passages of the source.", "data": [{"molecule": "C[C@@H]1[C@H](O)[C@@H](C)/C=C/C=C/C=C/C=C/C=C/C=C/C=C/[C@H](O[C@@H]2O[C@H](C)[C@@H](O)[C@H](N)[C@@H]2O)C[C@@H]2O[C@](O)(C[C@@H](O)C[C@@H](O)[C@H](O)CC[C@@H](O)C[C@@H](O)CC(=O)O[C@H]1C)C[C@H](O)[C@H]2C(=O)O", "note": "[Amphotericin B]", "values": [{"measurement": "cure", "setting": "[1]; 6-month therapy", "result": 97, "unit": "%"}, {"measurement": "cure rate", "setting": "[1]; cases where antimonial resistance is observed", "result": "~100", "unit": "%"}]}, {"molecule": "CCCCCCCCCCCCCCCCOP(=O)([O-])OCC[N+](C)(C)C", "note": "[Miltefosine]", "values": [{"measurement": "cure", "setting": "[1]; miltefosine data compared with 6-month Amphotericin B therapy", "result": 94, "unit": "%"}, {"measurement": "cure", "setting": "[1]; oral, 3-4-week treatment", "result": "95-100%"}]}, {"molecule": "O.O.O.O.[Na+].[O-]B1OO1", "note": "[SPT, sodium perborate tetrahydrate]", "values": [{"measurement": "GSH levels in infected astrocytes compared to the negative control", "setting": "[2]", "result": "significantly inducing GSH levels"}, {"measurement": "astrocyte cell viability compared to the negative control group", "setting": "[3]; 100 μM SPT, after 72 hours", "result": 100, "unit": "%"}, {"measurement": "cell viability of healthy C8-S astrocytes", "setting": "[3]; 200 μM SPT, 24, 48 and 72 hours", "result": "above 100%"}, {"measurement": "toxic effect on healthy cells", "setting": "[3]; [5]", "result": "showed no toxic effect on healthy cells"}, {"measurement": "infection rate of infected astrocytes", "setting": "[4]; 75 μM SPT, 24 hours, negative control approximately 23%", "result": "20±3.33", "unit": "%"}, {"measurement": "infection rate of infected astrocytes", "setting": "[4]; 75 μM SPT, 72 hours, negative control 13%", "result": "approximately 4%"}, {"measurement": "infection rate of infected astrocytes", "setting": "[4]; 100 μM SPT, 24 hours, negative control approximately 23%", "result": "17±2.86", "unit": "%"}, {"measurement": "infection rate of infected astrocytes", "setting": "[4]; 150 μM SPT, 24 hours, negative control approximately 23%", "result": "11.89±3.56", "unit": "%"}, {"measurement": "infection rate of infected astrocytes", "setting": "[4]; 200 μM SPT, 24 hours, negative control approximately 23%", "result": "7.97±1.51", "unit": "%"}, {"measurement": "infection rate of infected astrocytes", "setting": "[4]; 400 μM SPT, 24 hours, negative control approximately 23%", "result": "12.63±1.78", "unit": "%"}, {"measurement": "infection rate of infected astrocytes", "setting": "[4]; 100, 150, 200, and 400 μM SPT, 72 hours, negative control 13%", "result": "~7", "unit": "%"}, {"measurement": "cell viability on astrocytes infected with Leishmania infantum promastigotes", "setting": "[4]; [5]", "result": "statistically decreased cell viability"}, {"measurement": "effect on cells infected with L. infantum parasites", "setting": "[4]; SPT 75-200 μM", "result": "significant reduction"}]}]}
